Legend:
[1] = tested on: TAC-PH mice; experiment: Transverse aortic constriction (TAC) induced PH mouse model, BALB/cJ (Example 12); format: in vivo; details: day 42, relative to TAC PBS
Excerpt: (§1) The effects of an ActRIIA-mFc fusion polypeptide (SEQ ID NO: 56) was examined in a mouse model of left ventricular systolic dysfunction (also referred to as HErEF) of pulmonary hypertension (PH) and valvular heart disease. In this model, BALB/cJ mice underwent transverse aortic constriction (TAC) to induce left heart failure, and right heart and pulmonary remodeling. See, e.g., Xiong P Y. et al. Hypertension 2018, 71(1):34-55 and Chen Y. et al. Hypertension 2012, 59(6):1170-1178.
Forty-four BALB/cJ male mice (10 wks old) underwent TAC surgery and fourteen age-matched animals underwent a mock surgical procedure (Sham) at day 0. Two weeks after the surgery, TAC-PH mice were randomized into three groups. i) fourteen mice were injected subcutaneously with vehicle control (phosphate buffered saline (PBS)), twice weekly for 4 weeks starting from day 14 after surgery, “TAC PBS”; ii) fifteen mice were injected subcutaneously with ActRIIA-mFc at a dose of 3 mg/kg twice weekly for 4 weeks starting from day 14 after TAC surgery, “TAC ActRIIA-mFc 3 mpk”; and iii) fifteen mice were injected subcutaneously with ActRIIA-mFc at a dose of 10 mg/kg twice weekly for 4 weeks starting from day 14 after TAC surgery, “TAC ActRIIA-mFc 10 mpk.” At the end of the study, echocardiography and pressure-volume catheter were performed to measure left and right ventricular remodeling and functional changes before animals were euthanized for heart and lung collection. Hearts and lungs of each mouse were weighed, fixed in 10% formalin, embedded in paraffin, and sectioned for Masson's trichrome stain to assess fibrosis.
(§2) Prior to euthanasia, in vivo cardiac function was assessed by transthoracic echocardiography (Acuson P300, 18 MHz transducer; Siemens) in conscious mice. From left ventricle (LV) short axis view, M-mode echocardiogram was acquired to measure left ventricle end diastolic diameter (LVEDD), and left ventricle end systolic diameter (LVESD). Fractional shortening (FS) was calculated from the end-diastolic diameter (EDD) and end-systolic diameter (ESD) using the following equation: FS=100%×[(EDD−ESD)/EDD]. Early diastolic filling peak velocity (E), early diastolic mitral annular velocity (E′), and isovolumetric relaxation time (IVRT) were measured from the medial or septal wall at the mitral valve level from tissue Doppler image. LV diastolic function was assessed by measuring the E/E′ ratio and IVRT. Three to five beats were averaged for each mouse measurement. RV free wall thickness (RVFWT) was measured using M-mode in a modified parasternal long-axis view through the aortic valve. Pulmonary artery acceleration time (PAAT) was measured as the time from start to peak velocity of blood flow in the lumen of the main pulmonary artery distal to the pulmonary valve as obtained from the pulse-wave doppler recording.
On day 42, mice were anesthetized by an intraperitoneal injection of ketamine/xylazine (100/5 mg/kg) to evaluate left and right ventricular function by Millar pressure-volume conductance catheter. The respiration was supported by a small animal ventilator.
Thoracotomy was made through 4-5 intercostal space, and the heart was exposed. A pressure-volume catheter (1.0-Fr, PVR-1035, Millar Instruments, Houston, TX, USA) was inserted into the left ventricle and right ventricle from the apex. Ventricular pressure and volume were calculated with LabChart 7 software. Ejection fraction was derived. Afterwards, animals were euthanized for heart and lung collection. Cardiac hypertrophy was measured by heart weight (HW) normalized by tibial length (TL). Left ventricle (LV), right ventricle (RV) and lung of each mouse were separated, fixed in 10% formalin, embedded in paraffin, and sectioned for Masson's trichrome stain to assess fibrosis. Serum and urine samples were collected at the end of the study.

[2] = tested on: TAC-PH mice; experiment: Transverse aortic constriction (TAC) induced PH mouse model, C57BL/6 (Example 9); format: in vivo; details: 10 mg/kg s.c. twice weekly for 4 weeks from day 14 after TAC, day 42, relative to TAC-PH/PBS
Excerpt: as §1, with “(PH).” for “(PH) and valvular heart disease.”, “C57BL/6” for “BALB/cJ”, “Y,” for “Y.”
Twenty-six C57/B6 male mice (10 wks old) underwent TAC surgery and ten age-matched animals underwent a mock surgical procedure (Sham) at day 0. Two weeks after the surgery, TAC-PH mice were randomized into two groups. i) fourteen mice were injected subcutaneously with vehicle control (phosphate buffered saline (PBS)), twice weekly for 4 weeks starting from day 14 after surgery, “TAC-PH/PBS”: and a ii) twelve mice were injected subcutaneously with ActRIIA-mFc at a dose of 10 mg/kg twice weekly for 4 weeks starting from day 14 after TAC surgery, “TAC-PH/ActRII-mFc”. At the end of the study, echocardiography and pressure-volume catheter were performed to measure left and right ventricular remodeling and functional changes before animals were euthanized for heart and lung collection. Hearts and lungs of each mouse were weighed, fixed in 10% formalin, embedded in paraffin, and sectioned for Masson's trichrome stain to assess fibrosis.
as §2, with “Tricuspid annular plane systolic excursion (TAPSE), a parameter of global right ventricular function,” for “RV free wall thickness (RVFWT)”, “also measured.” for “measured using M-mode in a modified parasternal long-axis view through the aortic valve. Pulmonary artery acceleration time (PAAT) was measured as the time from start to peak velocity of blood flow in the lumen of the main pulmonary artery distal to the pulmonary valve as obtained from the pulse-wave doppler recording.”
On day 42, mice were anesthetized by an intraperitoneal injection of ketamine/xylazine (100/5 mg/kg) to evaluate left and right ventricular function by Millar pressure-volume conductance catheter. The respiration was supported by a small animal ventilator. Thoracotomy was made through 4-5 intercostal space, and the heart was exposed. A pressure-volume catheter (1.0-Fr, PVR-1035, Millar Instruments, Houston, TX, USA) was inserted into the left ventricle and right ventricle from the apex. Ventricular pressure and volume were calculated with LabChart 7 software. Stroke work, ejection fraction, maximum and minimum rate of pressure development (+dp/dtm, −dp/dtm) were derived.

“ActRIIA-mFc: ActRIIA-mFc fusion polypeptide (SEQ ID NO: 56); extracellular domain fused to murine IgG2a Fc domain with a linker” was tested, and the LV ejection fraction ([1]; 3 mpk or 10 mpk s.c. twice weekly for 4 weeks from day 14 after TAC, FIG. 45) was “restored LV ejection fraction”, the “cardiac hypertrophy, heart weight/tibia length (HW/TL)” value ([1]; 3 mpk or 10 mpk s.c. twice weekly for 4 weeks from day 14 after TAC, FIG. 46) was “significantly reduced cardiac hypertrophy” and the IVRT ([1]; 3 mpk or 10 mpk s.c. twice weekly for 4 weeks from day 14 after TAC, FIG. 48) was “reduced IVRT”. For the same substance, the RVSP ([1]; 3 mpk or 10 mpk s.c. twice weekly for 4 weeks from day 14 after TAC, FIG. 49) was “reduced RVSP”, the RVFWT ([1]; 3 mpk or 10 mpk s.c. twice weekly for 4 weeks from day 14 after TAC, FIG. 50) was “significantly reduced elevated RVFWT” and the PAAT ([1]; 3 mpk or 10 mpk s.c. twice weekly for 4 weeks from day 14 after TAC, FIG. 51) was “increased PAAT”. The LV fibrosis ([1]; 3 mpk or 10 mpk s.c. twice weekly for 4 weeks from day 14 after TAC, FIG. 52) was “significantly reduced”, the RV fibrosis ([1]; 3 mpk or 10 mpk s.c. twice weekly for 4 weeks from day 14 after TAC, FIG. 53) was “significantly reduced” and the lung fibrosis ([1]; 3 mpk or 10 mpk s.c. twice weekly for 4 weeks from day 14 after TAC, FIG. 54) was “significantly reduced lung fibrosis”. For the same substance, the “E/E′ ratio” value ([1]; 3 mpk s.c. twice weekly for 4 weeks from day 14 after TAC, FIG. 47) was “reduced E/E′ ratio at 3 mpk”, the “cardiac hypertrophy, heart weight/body weight (HW/BW)” value ([2]; FIG. 15) was “significantly reduced cardiac hypertrophy” and the “fractional shortening (FS)” value ([2]; FIG. 16) was “elevated FS”. The LV ejection fraction ([2]; FIG. 17) was “restored LV ejection fraction”, the “E/E′ ratio” value ([2]; FIG. 18) was “reduced E/E′ ratio” and the “isovolumetric relaxation time (IVRT)” value ([2]; FIG. 19) was “reduced IVRT”. For the same substance, the “right ventricle free wall thickness (RVFWT)” value ([2]; FIG. 20) was “significantly reduced elevated RVFWT”, the “tricuspid annular plane systolic excursion (TAPSE)” value ([2]; FIG. 21) was “increased reduced TAPSE” and the RV stroke work ([2]; FIG. 22) was “reduced elevated RV stroke work”. For the same substance, the “minimum rate of pressure development in RV (−dp/dTmin)” value ([2]; FIG. 23) was “decreased increased RV−dp/dTmin”, the “lung weight (LW/TL)” value ([2]; FIG. 24) was “decreased lung weight” and the lung fibrosis ([2]; FIG. 25) was “significantly reduced lung fibrosis”.
